Data published in ChEMBL document CHEMBL1126835, “QSAR's from similarity matrices. Technique validation and application in the comparison of different similarity evaluation methods” (J Med Chem, 1993).

How the values were obtained:
[1] = Dissociation constant (pKa); format: physicochemical
[2] = molecular target: T1, Sex hormone-binding globulin (Homo sapiens) (UniProt P04278)
T1 sequence (whole entry): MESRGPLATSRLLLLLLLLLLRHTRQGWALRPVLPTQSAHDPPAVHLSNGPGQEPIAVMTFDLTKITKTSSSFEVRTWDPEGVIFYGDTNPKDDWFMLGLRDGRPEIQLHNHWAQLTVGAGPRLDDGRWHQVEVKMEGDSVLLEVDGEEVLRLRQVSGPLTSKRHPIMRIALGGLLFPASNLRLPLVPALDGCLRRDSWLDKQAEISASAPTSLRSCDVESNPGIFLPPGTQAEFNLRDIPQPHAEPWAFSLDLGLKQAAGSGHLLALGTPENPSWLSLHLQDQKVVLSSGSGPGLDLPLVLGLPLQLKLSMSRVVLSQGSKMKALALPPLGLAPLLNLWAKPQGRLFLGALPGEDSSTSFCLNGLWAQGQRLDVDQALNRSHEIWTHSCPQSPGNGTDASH
Description: Binding affinity towards human testosterone binding globulin.

[3] = molecular target: T2, Corticosteroid-binding globulin (Homo sapiens) (UniProt P08185)
T2 sequence (whole entry): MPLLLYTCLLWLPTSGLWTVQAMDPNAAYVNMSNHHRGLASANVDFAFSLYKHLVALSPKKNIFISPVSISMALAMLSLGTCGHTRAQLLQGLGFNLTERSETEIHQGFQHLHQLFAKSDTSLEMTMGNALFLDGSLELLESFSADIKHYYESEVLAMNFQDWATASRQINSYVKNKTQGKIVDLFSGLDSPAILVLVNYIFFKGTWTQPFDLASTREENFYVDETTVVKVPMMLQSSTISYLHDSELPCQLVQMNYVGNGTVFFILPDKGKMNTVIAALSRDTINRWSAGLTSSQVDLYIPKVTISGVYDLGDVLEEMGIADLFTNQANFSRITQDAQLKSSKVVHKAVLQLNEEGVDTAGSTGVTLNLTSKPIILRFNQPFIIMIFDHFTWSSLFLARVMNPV
Description: Binding affinity towards human corticosteroid binding globulin.

**Q.** For `CSC1NC=CN1`, which pKa [1] is on record?
**A.** 5.95

**Q.** Which results are given for `CC(=O)[C@@]1(O)CC[C@H]2[C@@H]3CCC4=CC(=O)CC[C@]4(C)[C@H]3CC[C@@]21C`?
**A.** Log 1/K [2]: -7; Log 1/K [3]: -7.74

**Q.** With `C[C@]12CC[C@H]3[C@@H](CCC4=CC(=O)CC[C@@]43C)[C@@H]1CC[C@@H]2C(=O)CO` as the compound, how does the Log 1/K [2] read?
**A.** -7.38

**Q.** What about the Log 1/K [3] of the same compound?
**A.** -7.65

**Q.** Which pKa [1] does the source give for `O=[N+]([O-])C1NC=CN1` here?
**A.** -0.81

**Q.** With `CC(=O)[C@H]1CC[C@H]2[C@@H]3CC=C4C[C@@H](O)CC[C@]4(C)[C@H]3CC[C@]12C` as the compound, how does the Log 1/K [2] read?
**A.** -7.15

**Q.** What about the Log 1/K [3] of the same compound?
**A.** -5.22

**Q.** With `C1=CNC(c2ccncc2)N1` as the compound, how does the pKa [1] read?
**A.** 5.36

**Q.** Which pKa [1] does the source give for `C1=CNCN1` here?
**A.** 6.99

**Q.** Which Log 1/K [2] does the source give for `C[C@]12CCC(=O)C=C1CCC1C3CC[C@H](C(=O)CO)[C@@]34C[C@H](OC4O)C12` (stereo not given in full) here?
**A.** -5.32

**Q.** What about the Log 1/K [3] of the same compound?
**A.** -6.28

**Q.** For `C[C@]12C[C@H](O)[C@H]3[C@@H](CCC4=CC(=O)CC[C@@]43C)[C@@H]1CC[C@@H]2C(=O)CO`, which Log 1/K [2] is on record?
**A.** -6.34

**Q.** And the Log 1/K [3]?
**A.** -7.88

**Q.** With `CN1C=CNC1F` (stereo not given) as the compound, how does the pKa [1] read?
**A.** 2.3

**Q.** What does the source list for `C[C@]12CCC(=O)C=C1CC[C@@H]1[C@@H]2CC[C@@]2(C)[C@H]1CC[C@]2(O)C(=O)CO`?
**A.** Log 1/K [2]: -7.2; Log 1/K [3]: -7.88

**Q.** For `CC1NC=CN1`, which pKa [1] is on record?
**A.** 7.86

**Q.** For `C[C@]12CC[C@@H](O)C[C@H]1CC[C@@H]1[C@@H]2CC[C@]2(C)C(=O)CC[C@@H]12`, which Log 1/K [2] is on record?
**A.** -6.15

**Q.** What about the Log 1/K [3] of the same compound?
**A.** -5.22

**Q.** For `CN1C=CNC1N` (stereo not given), which pKa [1] is on record?
**A.** 8.54

**Q.** For `CCCCc1cc2c(cn1)[nH]c1ccccc12`, which Log 1/K [2] is on record?
**A.** -9.11

**Q.** What about the Log 1/K [3] of the same compound?
**A.** -5

**Q.** With `CN1C=CNC1Br` (stereo not given) as the compound, how does the pKa [1] read?
**A.** 3.82

**Q.** Which Log 1/K [2] does the source give for `C[C@]12CCC(=O)C=C1CC[C@@H]1[C@@H]2C(=O)C[C@@]2(C)[C@H]1CC[C@]2(O)C(=O)CO` here?
**A.** -6.43

**Q.** What about the Log 1/K [3] of the same compound?
**A.** -6.89

**Q.** For `C[C@]12CC[C@H](O)CC1=CC[C@@H]1[C@@H]2CC[C@]2(C)C(=O)CC[C@@H]12`, which Log 1/K [2] is on record?
**A.** -7.82

**Q.** And the Log 1/K [3]?
**A.** -5

**Q.** With `NC1NC=CN1` as the compound, how does the pKa [1] read?
**A.** 8.46

**Q.** What does the source list for `CC(=O)[C@H]1CC[C@H]2[C@@H]3CCC4=CC(=O)CC[C@]4(C)[C@H]3CC[C@]12C`?
**A.** Log 1/K [2]: -6.94; Log 1/K [3]: -7.38

**Q.** Which pKa [1] does the source give for `CN1C=CNC1` here?
**A.** 7.12

**Q.** With `C1=CNC(c2ccccc2)N1` as the compound, how does the pKa [1] read?
**A.** 6.48

**Q.** What does the source list for `C[C@]12CCC(=O)C=C1CC[C@@H]1[C@@H]2CC[C@]2(C)C(=O)CC[C@@H]12`?
**A.** Log 1/K [2]: -7.46; Log 1/K [3]: -5.76

**Q.** What does the source list for `C[C@]12CCC3C4=C(CCC3C1CCC2=O)CC(=O)C=C4` (stereo not given in full)?
**A.** Log 1/K [2]: -8.18; Log 1/K [3]: -5

**Q.** For `BrC1NC=CN1`, which pKa [1] is on record?
**A.** 3.79

**Q.** Which pKa [1] does the source give for `FC1NC=CN1` here?
**A.** 2.4

**Q.** What does the source list for `C[C@]12CCC(=O)C=C1CC[C@@H]1[C@@H]2[C@@H](O)C[C@@]2(C)[C@H]1CC[C@]2(O)C(=O)CO`?
**A.** Log 1/K [2]: -6.2; Log 1/K [3]: -7.88

**Q.** Which pKa [1] does the source give for `CCC1NC=CN1` here?
**A.** 7.73

**Q.** Which pKa [1] does the source give for `ClC1NC=CN1` here?
**A.** 3.55

**Q.** With `CC(=O)[C@@]1(O)CC[C@H]2[C@@H]3CC=C4C[C@@H](O)CC[C@]4(C)[C@H]3CC[C@@]21C` as the compound, how does the Log 1/K [2] read?
**A.** -6.36

**Q.** And the Log 1/K [3]?
**A.** -5
